{
  "source": "patent US12642790B2",
  "about": "“Drug combination for treating obesity” (The Curators of the University of Missouri, priority 2022, dated 2026)",
  "key": {"UCP1 [1]": {"system": "UCP1", "experiment": "Western blot of UCP1 protein in inguinal subcutaneous adipose tissue of diet-induced obese WT and ERβDBDKO mice", "type": "in vivo", "conditions": "daily injections of CL for two weeks; ERβDBDKO vs WT diet-induced obese mice; GxT p=0.017; FIG. 1C", "from_the_text": "(§1) Inguinal subcutaneous adipose tissue was harvested from diet-induced obese male and female wild-type (WT) and estrogen receptor beta (ERβ) DNA-binding domain (DBD) knock-out (ERβDBDKO) mice that were given daily injections of CL316,243 (CL), a beta3 adrenergic receptor (B3AR) ligand, for two weeks. ERβDBDKO mice express a mutated form of ERβ that lacks genomic activity by genetic ablation of the DBD, however still retain non-classical (i.e., non-genomic) signaling through ERβ. Protein was then isolated from the adipose tissue using Thermo Scientific™ RIPA lysis and extraction buffer, quantified using BCA method, then 10 ug was separated on a 4-20% SDS-PAGE gel followed by transfer to polyvinylidene difluoride membranes using BioRad Trans-Turbo Blot system. […] Images were captured on a ChemiDoc Imaging System (BioRad, Hercules, CA), band intensity was quantified using ImageLab software (BioRad), then ERβ and UCP1 protein expression was quantified relative to beta actin.\n(§2) FIG. 1A is a Western blot showing the levels of ERβ and UPC1 in WT and ERβDBDKO (“KO”) mice, in the presence and absence of CL316243 (“CL”). The blot in FIG. 1A was scanned to quantify the band intensity, and the data used to graph the relative protein fold change for ERβ (FIG. 1B) and UCP-1 (FIG. 1C)."}, "ERβ": {"system": "ERβ", "experiment": "Western blot of ERβ protein in inguinal subcutaneous adipose tissue of diet-induced obese WT and ERβDBDKO mice", "type": "in vivo", "conditions": "daily injections of CL for two weeks; ERβDBDKO vs WT diet-induced obese mice; GxT p<0.001; FIG. 1B", "from_the_text": "as §1, §2"}, "UCP1 [2]": {"system": "UCP1", "experiment": "ucp1 mRNA induction in primary adipocytes by qRT-PCR", "type": "cell-based", "conditions": "primary adipocytes from male C57BL6J mice; 1 uM CL with 1 uM PHTPP or 10 nM DPN; 24 hours; compared to CL alone; FIG. 4", "procedure": "To test the hypothesis in vitro, that inhibition of genomic activity of ERβ would enhance the effectiveness of the […], CL316,243 (CL) to induce expression of the mitochondrial UCP1, primary adipocytes were treated with the following: (a) CL, (b) diarylpropionitrile (DPN) (i.e., ligand known to promote classical genomic functions of ERβ), (c) 4-(2-phenyl-5,7-bis(trifluoromethyl)pyrazolo[1,5-a]pyrimidin-3-yl)phenol (PHTPP) (i.e., ligand known to suppress classical genomic functions of ERβ), (d) CL+DPN, and (e) CL+PHTPP. Briefly, perigonadal and subcutaneous WAT was harvested from male C57BL6J mice, digested in collagenase to isolate stromal vascular cells then cultured in Dulbecco's modified eagle medium/nutrient mixture F12 media supplemented with 10% fetal bovine serum, 1% GlutaMax, 0.1% gentamicin and 0.05% insulin at 37° C. and 5% CO2. Adipocyte differentiation was induced by supplementing media with 0.5 mM 3-isobutyl-1-methylxanithin, 1 uM dexamethasone, and […] for 48 hours. 14 days post induction, primary adipocytes were treated with either 1 uM CL, 10 nM DPN, 1 uM PHTPP or a combination of ligands as outlined above. After 24 hours treatment, ucp1 mRNA induction was measured using qRT-PCR. […] Ucp1 mRNA expression is expressed as 2^ΔCT where ΔCT=housekeeping CT−Ucp1 CT and presented as fold difference relative to control (CTRL). […]"}, "[3]": {"conditions": "administration of mirabegron; cited from earlier work"}, "white adipose tissue": {"system": "white adipose tissue", "conditions": "obese human individuals; cited from earlier work"}},
  "data": [
    {"smiles": "C[C@H](Cc1ccc2c(c1)OC(C(=O)[O-])(C(=O)[O-])O2)NC[C@H](O)c1cccc(Cl)c1.[Na+].[Na+]", "note": "[CL]", "values": [
      {"measurement": "UCP1 protein content (relative to beta actin)", "setting": "UCP1 [1]", "result": "increases UCP1 protein content in ERβDBDKO mice more so than in WT mice"},
      {"measurement": "ERβ protein content in WAT (relative to beta actin)", "setting": "ERβ", "result": "increases ERβ protein content in WAT to a greater level in ERβDBDKO mice compared to WT"}
    ]},
    {"smiles": "Oc1ccc(-c2c(-c3ccccc3)nn3c(C(F)(F)F)cc(C(F)(F)F)nc23)cc1", "note": "[PHTPP, 4-(2-phenyl-5,7-bis(trifluoromethyl)pyrazolo[1,5-a]pyrimidin-3-yl)phenol]", "values": [
      {"measurement": "Ucp1 mRNA expression, fold difference relative to control", "setting": "UCP1 [2]", "result": "increases the CL-mediated induction of UCP1"}
    ]},
    {"smiles": "Nc1nc(CC(=O)Nc2ccc(CCNC[C@H](O)c3ccccc3)cc2)cs1", "note": "[mirabegron]", "values": [
      {"measurement": "side effects", "setting": "[3]", "result": "may result in hypertension, nasopharyngitis, tachycardia, headaches, urinary tract infections, upper respiratory tract infections, constipation, abdominal pain, and fatigue"},
      {"measurement": "white adipose tissue dysfunction", "setting": "white adipose tissue", "result": "reduced white adipose tissue dysfunction"}
    ]}
  ]
}
